Experimental data from patent US7632524B2, “Pharmaceutical preparations for the treatment of itch, nausea, hyperalgesia and the complications of opioid agonists” (priority 2002, dated 2009).

Key:
Assay type in all cases: in vivo
opioid-induced emesis = assay: Ferret model of opioid (morphine-6-glucuronide)-induced emesis
Description: FIG. 1. Prevention of opioid-induced emesis by the Croton speceis extract, (Zangrado®). Emesis as measured by the number of vomiting and retching episodes per hour was induced by parenteral administration of the opioid narcotic, morphine-6-glucuronide (15 mg/kg) ip.
Sangre de Grado has also been used ethnomedically for the treatment of a variety of intestinal complications including diarrhea, ulcerations, cancer and emesis. Using a well-established ferret model of post-operative complications of emesis induced by morphine, Zangrado (CGO 110) was administered intraperitoneally (3 mg/kg) to ferrets 15 minutes prior to the administration of morphine-6-glucuronide (M6G), known to promote itching, retching and vomiting. The animals were monitored for sixty minutes.
As shown in FIG. 1 the subcutaneous injection of 0.05 mg/kg M6G caused a significant number of vomiting (2.2±0.4) and retching (10±1.2) incidences in the control group. In those animals treated with Zangrado (CGO 110), the number of these episodes was virtually abolished (vomiting 0.6±0.3; retching 2.2±0.7, P<0.05). Given the utility of this model to predict treatments for nausea and vomiting, Zangrado (CGO 110) contains active components and is effective in the treatment of emesis.

opioid-induced itch = assay: Ferret model of opioid (morphine-6-glucuronide)-induced itch (licking)
Description: FIG. 2: FIG. 2. Prevention of opioid-induced itch by Zangrado. Itch, as measured by the number of licking episodes per hour, was induced by parenteral administration of the opioid narcotic, morphine-6-glucuronide (15 mg/kg) ip.
Zangrado (CGO 110) contains active components and is effective in the treatment of itch.

[1] = Body temperature and sedation at anti-emetic doses; conditions: CGO 110 3 mg/kg
Description: As such, Zangrado represents a significant improvement in the treatment of emesis and itch.

SMILES | effect on emesis in naïve animals (opioid-induced emesis) | effect on licking in naïve animals (opioid-induced itch) | effect on body temperature [1] | sedation [1]
Cc1c(C(=O)NN2CCCCC2)nn(-c2ccc(Cl)cc2Cl)c1-c1ccc(I)cc1 [AM251] | promotes emesis | promotes licking |  | 
Cc1c(C(=O)c2cccc3ccccc23)c2cccc3c2n1[C@H](CN1CCOCC1)CO3 [WIN 55, 212-2] |  |  | produces a drop in body temperature | significant sedation
